Experimental data as given in US9145375B2, “Quinazolinone compounds” (PRANA BIOTECHNOLOGY LIMITED, priority 2008, dated 2015).

Experiments:
Format in all cases: in vitro ADME
CYP2C9 = biological target: T1, CYP2C9 (Homo sapiens, UniProt P11712); assay: CYP450 isoform inhibition, recombinant enzymes, analysis by LCMS: CYP2C9
T1 construct: using a specific substrate approach in human liver microsomes; from tissue; host or cells: human liver microsomes
Protocol: (§1) CYP450 Isoform Inhibition
(§2) Microsomes containing individual recombinant human CYP450 enzymes (Supersomes™) were incubated in the presence of a fixed concentration of a probe substrate that forms a fluorescent metabolite upon CYP450-mediated metabolism.
(§3) A known inhibitor of each CYP450 isoform was included in each assay as a positive control and its IC50 was compared to literature values for acceptance of the assay.
(§4) The inherent fluorescence of the test compound was examined under the specific assay conditions for each isoform before and after the fluorometric assay to identify any compound-specific interference due to the parent compound or metabolic products. If the background fluorescence in these samples increased due to compound-specific interference, then the CYP450 inhibition samples were quantified using LC/MS assay.

CYP2C19 = biological target: T2, CYP2C19 (Homo sapiens, UniProt P33261); assay: CYP450 isoform inhibition, recombinant enzymes, analysis by LCMS: CYP2C19
T2 construct: using a specific substrate approach in human liver microsomes; from tissue; host or cells: human liver microsomes
T2 sequence (P33261 whole entry, canonical isoform): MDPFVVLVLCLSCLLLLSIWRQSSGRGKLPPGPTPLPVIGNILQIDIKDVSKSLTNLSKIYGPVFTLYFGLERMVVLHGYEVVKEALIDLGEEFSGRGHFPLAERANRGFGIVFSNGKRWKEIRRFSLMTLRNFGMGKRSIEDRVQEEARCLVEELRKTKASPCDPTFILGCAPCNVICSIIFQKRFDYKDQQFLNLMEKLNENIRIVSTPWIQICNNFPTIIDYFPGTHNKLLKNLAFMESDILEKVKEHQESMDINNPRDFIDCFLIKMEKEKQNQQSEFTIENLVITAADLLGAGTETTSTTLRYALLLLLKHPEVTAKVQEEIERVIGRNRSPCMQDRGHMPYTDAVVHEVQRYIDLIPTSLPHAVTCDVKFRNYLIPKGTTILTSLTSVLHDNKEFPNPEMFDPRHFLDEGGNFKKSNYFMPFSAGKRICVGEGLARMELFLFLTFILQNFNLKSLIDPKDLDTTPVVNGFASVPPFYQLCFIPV
Protocol: as §1, §2, §3, §4

CYP3A4 = CYP3A4 (Homo sapiens, UniProt P08684); assay: CYP450 isoform inhibition, recombinant enzymes, analysis by LCMS: CYP3A4; design: purchased
Chain of CYP3A4 (P08684 whole entry, canonical isoform): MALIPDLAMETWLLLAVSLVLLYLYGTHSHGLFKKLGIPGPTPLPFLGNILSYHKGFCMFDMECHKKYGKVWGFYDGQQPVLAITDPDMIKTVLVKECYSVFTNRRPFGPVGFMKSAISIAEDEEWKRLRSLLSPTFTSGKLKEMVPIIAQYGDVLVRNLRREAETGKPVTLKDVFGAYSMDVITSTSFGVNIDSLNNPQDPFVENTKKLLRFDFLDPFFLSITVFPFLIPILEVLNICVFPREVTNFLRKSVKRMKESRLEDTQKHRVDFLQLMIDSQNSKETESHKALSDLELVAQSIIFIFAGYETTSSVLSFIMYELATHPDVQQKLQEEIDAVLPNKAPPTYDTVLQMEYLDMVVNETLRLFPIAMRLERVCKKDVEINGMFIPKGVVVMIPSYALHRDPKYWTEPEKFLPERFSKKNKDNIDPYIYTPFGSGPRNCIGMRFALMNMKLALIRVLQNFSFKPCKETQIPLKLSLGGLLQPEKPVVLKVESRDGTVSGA
Protocol: as §1, §2, §3, §4

T1 sequence (P11712 whole entry, canonical isoform): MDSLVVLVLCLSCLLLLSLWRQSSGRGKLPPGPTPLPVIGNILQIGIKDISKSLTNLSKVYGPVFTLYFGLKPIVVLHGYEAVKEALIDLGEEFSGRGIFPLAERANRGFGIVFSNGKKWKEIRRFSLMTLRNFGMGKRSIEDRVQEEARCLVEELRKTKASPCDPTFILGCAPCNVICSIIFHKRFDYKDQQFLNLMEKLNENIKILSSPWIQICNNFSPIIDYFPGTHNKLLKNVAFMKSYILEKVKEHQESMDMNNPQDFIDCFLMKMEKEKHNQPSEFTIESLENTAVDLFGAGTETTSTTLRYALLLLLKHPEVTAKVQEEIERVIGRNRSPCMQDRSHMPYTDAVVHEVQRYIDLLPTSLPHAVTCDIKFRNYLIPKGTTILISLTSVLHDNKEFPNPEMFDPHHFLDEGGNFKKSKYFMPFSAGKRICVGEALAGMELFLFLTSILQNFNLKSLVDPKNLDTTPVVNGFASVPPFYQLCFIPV

IC50 (CYP2C9): > 40 µM
IC50 (CYP2C19): > 40 µM
IC50 (CYP3A4): 13.8 µM
SMILES: CNCc1nc2c(O)c(Cl)cc(Cl)c2c(=O)n1C [Compound F4161]
